Key:
[1] = test system: human Smo; details: HEK293 cells that stably express human Smo; cited from earlier work
[2] = target: P-glycoprotein (Pgp) (Homo sapiens, UniProt P08183); test: P-glycoprotein substrate assessment; assay type: in vitro ADME; details: CRO service (Pharmaron or Cyprotex)
[3] = target: CYP3A4 (Homo sapiens, UniProt P08684); test: CYP3A4 inhibition; assay type: in vitro ADME; details: removal of the triazole moiety
[4] = test system: Gli1 mRNA expression in ASZ cells; test: Hh inhibition: down-regulation of endogenous Gli1 mRNA expression in ASZ cells; assay type: cell-based, murine

Chain of P-glycoprotein (Pgp) (P08183 whole entry): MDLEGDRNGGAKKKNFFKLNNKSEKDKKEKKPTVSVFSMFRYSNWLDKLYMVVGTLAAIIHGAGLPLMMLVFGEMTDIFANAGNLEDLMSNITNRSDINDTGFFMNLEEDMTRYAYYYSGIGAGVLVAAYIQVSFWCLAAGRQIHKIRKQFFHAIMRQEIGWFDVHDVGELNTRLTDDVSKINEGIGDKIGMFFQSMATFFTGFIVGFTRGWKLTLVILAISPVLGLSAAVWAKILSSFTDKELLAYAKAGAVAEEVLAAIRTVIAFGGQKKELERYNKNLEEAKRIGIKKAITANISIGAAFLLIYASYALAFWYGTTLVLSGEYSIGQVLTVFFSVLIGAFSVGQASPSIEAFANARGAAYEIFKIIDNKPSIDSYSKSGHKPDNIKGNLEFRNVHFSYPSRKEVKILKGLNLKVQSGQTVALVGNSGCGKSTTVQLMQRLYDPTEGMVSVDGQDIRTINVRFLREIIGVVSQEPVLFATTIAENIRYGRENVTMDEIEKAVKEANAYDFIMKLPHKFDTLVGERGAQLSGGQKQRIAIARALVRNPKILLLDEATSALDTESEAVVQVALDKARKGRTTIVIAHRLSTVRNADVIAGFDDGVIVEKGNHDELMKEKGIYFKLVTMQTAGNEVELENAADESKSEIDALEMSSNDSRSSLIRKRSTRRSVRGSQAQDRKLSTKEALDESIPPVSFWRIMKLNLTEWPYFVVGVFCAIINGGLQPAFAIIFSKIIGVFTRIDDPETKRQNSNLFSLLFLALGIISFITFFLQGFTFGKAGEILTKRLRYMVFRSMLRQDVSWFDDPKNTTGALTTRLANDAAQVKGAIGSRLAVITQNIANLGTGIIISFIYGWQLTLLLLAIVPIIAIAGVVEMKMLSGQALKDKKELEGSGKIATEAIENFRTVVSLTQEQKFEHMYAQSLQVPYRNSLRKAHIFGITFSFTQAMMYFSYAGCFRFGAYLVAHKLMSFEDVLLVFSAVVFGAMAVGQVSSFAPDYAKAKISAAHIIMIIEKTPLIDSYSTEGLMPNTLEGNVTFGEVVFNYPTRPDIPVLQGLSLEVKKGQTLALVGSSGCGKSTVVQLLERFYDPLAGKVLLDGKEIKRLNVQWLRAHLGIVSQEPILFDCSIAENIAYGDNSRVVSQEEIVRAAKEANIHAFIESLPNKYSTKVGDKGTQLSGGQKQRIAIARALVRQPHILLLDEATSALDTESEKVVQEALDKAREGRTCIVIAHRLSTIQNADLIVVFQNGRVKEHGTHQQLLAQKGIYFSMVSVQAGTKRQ
Chain of CYP3A4 (P08684 whole entry): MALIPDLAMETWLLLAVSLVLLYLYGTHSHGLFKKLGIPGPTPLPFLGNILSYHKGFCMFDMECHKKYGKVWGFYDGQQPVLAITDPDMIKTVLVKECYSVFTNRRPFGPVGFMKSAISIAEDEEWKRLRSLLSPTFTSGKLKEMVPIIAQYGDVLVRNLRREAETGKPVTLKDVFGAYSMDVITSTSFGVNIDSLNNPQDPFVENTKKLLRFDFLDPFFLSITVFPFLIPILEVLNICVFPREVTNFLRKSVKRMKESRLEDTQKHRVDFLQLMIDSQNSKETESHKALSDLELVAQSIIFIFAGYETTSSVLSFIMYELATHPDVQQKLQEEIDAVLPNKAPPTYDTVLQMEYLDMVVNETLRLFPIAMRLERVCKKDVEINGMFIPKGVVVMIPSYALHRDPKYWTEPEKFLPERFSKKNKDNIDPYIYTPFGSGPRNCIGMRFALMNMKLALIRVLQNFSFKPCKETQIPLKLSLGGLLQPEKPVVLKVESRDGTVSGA

For `CCC(C)n1ncn(-c2ccc(N3CCN(c4ccc(OCC5COC(Cn6cncn6)(c6ccc(Cl)cc6Cl)O5)cc4)CC3)cc2)c1=O` (stereo not drawn) [ITZ, itraconazole], the “displacement of a tritiated Smo antagonist” value [1] is listed as “significantly displaced”.

In the case of `CC[C@@H]([C@H](C)O)n1ncn(-c2ccc(N3CCN(c4ccc(OC[C@@H]5CO[C@@](Cn6cncn6)(c6ccc(F)cc6F)C5)cc4)CC3)cc2)c1=O` [PSZ, Posaconazole, reference compound], the “P-gp Substrate” value [2] is reported as “identified as a substrate”.

In the case of `CC[C@@H](C)n1ncn(-c2ccc(N3CCN(c4ccc(OC[C@@H]5CO[C@@](C)(c6ccc(F)cc6F)C5)cc4)CC3)cc2)c1=O` [analogue 1, 2-((R)-sec-butyl)-4-(4-(4-(4-(((3R,5R)-5-(2,4-difluorophenyl)-5-methyltetrahydrofuran-3-yl)methoxy)phenyl)-piperazin-1-yl)phenyl)-2,4-dihydro-3H-1,2,4-triazol-3-one], the “ability to inhibit Cyp3A4, in words” value [3] is reported as “completely abolished”, the “P-gp Substrate” value [2] is reported as “not a substrate” and the “fold more potent than PSZ” value ([4]; ratio of IC50 values) is reported as “approximately 2.5 fold”.

In the case of `CC1(c2ccc(Cl)cc2Cl)OCC(COc2ccc(N3CCN(c4ccc(-n5cnn(CCC(=O)O)c5=O)cc4)CC3)cc2)O1` (stereo not drawn) [analogue 21, 3-(4-(4-(4-(4-((2-(2,4-dichlorophenyl)-2-methyl-1,3-dioxolan-4-yl)methoxy)phenyl)piperazin-1-yl)phenyl)-5-oxo-4,5-dihydro-1H-1,2,4-triazol-1-yl)propanoic acid], the “fold more active than 19” value [4] is reported as “approximately 2 fold”.
